The compounds below were run on HIV-1 single-round infectious reporter virus (assay: Single-round infectious HIV-1 luciferase reporter virus infection of HeLa CD4 cells (antiviral EC50)). Conditions: Human immunodeficiency virus 1, HeLa, read-out: EC50 Group from Table 3.
Type: cell-based
Method: • Virus production—Human embryonic Kidney cell line, 293T, was propagated in Dulbecco's Modified Eagle Medium (Invitrogen, Carlsbad, Calif.) containing 10% fetal Bovine serum (FBS, Sigma, St. Louis, Mo.). • Virus infection—Human epithelial cell line, HeLa, expressing the HIV-1 receptor CD4 was propagated in Dulbecco's Modified Eagle Medium (Invitrogen, Carlsbad, Calif.) containing 10% fetal Bovine serum (FBS, Sigma, St. Louis, Mo.) and supplemented with 0.2 mg/mL Geneticin (Invitrogen, Carlsbad, Calif.). Virus-Single-round infectious reporter virus was produced by co-transfecting human embryonic Kidney 293 cells with an HIV-1 envelope DNA expression vector and a proviral cDNA containing an envelope deletion mutation and the luciferase reporter gene inserted in place of HIV-1 nef sequences (Chen et al, Ref. 41). Transfections were performed using lipofectAMINE PLUS reagent as described by the manufacturer (Invitrogen, Carlsbad, Calif.). Experiment • 1. HeLa CD4 cells were plated in 96 well plates at a cell density of 1×10^4 cells per well in 100 μl Dulbecco's Modified Eagle Medium containing 10% fetal Bovine serum and incubated overnight. • 2. Compound was added in a 2 μl dimethylsulfoxide solution, so that the final assay concentration would be ≦10 μM. • 3. 100 μl of single-round infectious reporter virus in Dulbecco's Modified Eagle Medium was then added to the plated cells and compound at an approximate multiplicity of infection (MOI) of 0.01, resulting in a final volume of 200 μl per well. • 4. Virally-infected cells were incubated at 37 degrees Celsius, in a CO2 incubator, and harvested 72 h after infection. • 5. Viral infection was monitored by measuring luciferase expression from viral DNA in the infected cells using a luciferase reporter gene assay kit, as described by the manufacturer (Roche Molecular Biochemicals, Indianapolis, Ind.). Infected cell supernatants were removed and 50 μl of lysis buffer was added per well. After 15 minutes, 50 μl of freshly-reconstituted luciferase assay reagent was added per well. Luciferase activity was then quantified by measuring luminescence using a Wallac microbeta scintillation counter. • 6. The percent inhibition for each compound was calculated by quantifying the level of luciferase expression in cells infected in the presence of each compound as a percentage of that observed for cells infected in the absence of compound and subtracting such a determined value from 100. • 7. An EC50 provides a method for comparing the antiviral potency of the compounds of this disclosure. The effective concentration for fifty percent inhibition (EC50) was calculated with the Microsoft Excel Xlfit curve fitting software. For each compound, curves were generated from percent inhibition calculated at 10 different concentrations by using a four parameter logistic model (model 205). Table 3 is the key for the data in Table 4. Results
With COc1cnc(-n2ccnn2)c2[nH]cc(C(=O)C(=O)N3CCN(c4nnnn4-c4ccccc4)CC3)c12 [A-1] the EC50 was < 500 nM. For O=C(C(=O)N1CCN(c2ccc(-c3ccccc3)cc2)CC1)c1c[nH]c2c(-n3ccnn3)ncc(F)c12 [A-2], the EC50 was > 500 nM. O=C(C(=O)N1CCN(c2cccc(-c3ccccc3)c2)CC1)c1c[nH]c2c(-n3ccnn3)ncc(F)c12 [A-3] was tested, and the EC50 was < 500 nM. In the case of O=C(C(=O)N1CCN(c2ccccc2-c2ccccc2)CC1)c1c[nH]c2c(-n3ccnn3)ncc(F)c12 [A-4], the EC50 is reported as < 500 nM. With O=C(C(=O)N1CCN(c2nnnn2-c2ccccc2)CC1)c1c[nH]c2c(-n3ccnn3)ncc(F)c12 [A-5] the EC50 was < 500 nM. O=C(C(=O)N1CCN(c2cc(O)nnc2-c2ccccc2)CC1)c1c[nH]c2c(-n3ccnn3)ncc(F)c12 [A-6] was tested, and the EC50 was < 500 nM. In the case of O=C(C(=O)N1CCN(c2nccc(-c3ccccc3)n2)CC1)c1c[nH]c2c(-n3ccnn3)ncc(F)c12 [A-7], the EC50 is reported as < 500 nM. In the case of O=C(C(=O)N1CCN(c2nc(-c3ccccc3)cs2)CC1)c1c[nH]c2c(-n3ccnn3)ncc(F)c12 [A-8], the EC50 is reported as < 500 nM. With COc1cnc(-n2cnc(C)n2)c2[nH]cc(C(=O)C(=O)N3CCN(c4nnnn4-c4ccccc4)CC3)c12 [A-9] the EC50 was < 500 nM. For O=C(C(=O)N1CCN(c2nnnn2-c2ccccc2)CC1)c1c[nH]c2ncccc12 [A-10], the EC50 was < 500 nM. With COc1ccnc2[nH]cc(C(=O)C(=O)N3CCN(c4nnnn4-c4ccccc4)CC3)c12 [A-11] the EC50 was < 500 nM. COc1ncc(OC)c2c(C(=O)C(=O)N3CCN(c4nnnn4-c4ccccc4)CC3)c[nH]c12 [A-12] was tested, and the EC50 was < 500 nM. For O=C(C(=O)N1CCN(c2nsnc2-c2ccccc2)CC1)c1c[nH]c2c(-n3ccnn3)ncc(F)c12 [A-13], the EC50 was < 500 nM. With C[C@@H]1CN(c2nnnn2-c2ccccc2)CCN1C(=O)C(=O)c1c[nH]c2c(-n3ccnn3)ncc(F)c12 [A-14] the EC50 was < 500 nM. In the case of C[C@H]1CN(c2nnnn2-c2ccccc2)CCN1C(=O)C(=O)c1c[nH]c2c(-n3ccnn3)ncc(F)c12 [A-15], the EC50 is reported as < 500 nM. In the case of O=C(C(=O)N1CCC(c2nc3ccccc3n2-c2ccccc2)CC1)c1c[nH]c2c(-n3ccnn3)ncc(F)c12 [A-16], the EC50 is reported as < 500 nM. O=C(C(=O)N1CCN(c2nccnc2-c2ccccc2)CC1)c1c[nH]c2c(-n3ccnn3)ncc(F)c12 [A-17] was tested, and the EC50 was < 500 nM. In the case of O=C(C(=O)N1CCN([C@H]2CCCC[C@H]2c2ccccc2)CC1)c1c[nH]c2c(-n3ccnn3)ncc(F)c12 [A-19], the EC50 is reported as < 500 nM. For O=C(C(=O)N1CCN(c2nncn2-c2ccccc2)CC1)c1c[nH]c2c(-n3ccnn3)ncc(F)c12 [A-20], the EC50 was < 500 nM. For O=C(C(=O)N1CCC(N2C(=O)CC2c2ccccc2)CC1)c1c[nH]c2c(-n3ccnn3)ncc(F)c12 (stereo not drawn) [A-21], the EC50 was < 500 nM. For O=C(C(=O)N1CCN(c2nnc(O)n2-c2ccccc2)CC1)c1c[nH]c2c(-n3ccnn3)ncc(F)c12 [A-22], the EC50 was < 500 nM. O=C(C(=O)N1CCN(N2C(=O)CC2c2ccccc2)CC1)c1c[nH]c2c(-n3ccnn3)ncc(F)c12 (stereo not drawn) [A-23] was tested, and the EC50 was > 500 nM. O=C(C(=O)N1CCC(N2CCC2c2ccccc2)CC1)c1c[nH]c2c(-n3ccnn3)ncc(F)c12 (stereo not drawn) [A-24] was tested, and the EC50 was > 500 nM. For COC(=O)c1ccc(F)c2c(C(=O)C(=O)N3CCN(c4nnnn4-c4ccccc4)CC3)c[nH]c12 [A-25], the EC50 was < 500 nM. C[C@@H]1CN(c2nnnn2-c2ccccc2)[C@@H](C)CN1C(=O)C(=O)c1c[nH]c2c(-n3ccnn3)ncc(F)c12 [A-26] was tested, and the EC50 was < 500 nM. With O=C(C(=O)N1CCN(c2nnnn2-c2ccccc2)CC1)c1c[nH]c2cccc(F)c12 [A-27] the EC50 was < 500 nM. For O=C(C(=O)N1CCN(c2nc(-c3ccccc3)ns2)CC1)c1c[nH]c2c(-n3ccnn3)ncc(F)c12 [A-28], the EC50 was < 500 nM. In the case of COc1cnc(-n2cnc(C)n2)c2[nH]cc(C(=O)C(=O)N3CCN(c4nnnn4-c4ccccc4)C[C@H]3C)c12 [A-30], the EC50 is reported as < 500 nM. For COc1cnc(-n2cnc(C)n2)c2[nH]cc(C(=O)C(=O)N3CCN(c4nnnn4-c4ccccc4)C[C@@H]3C)c12 [A-31], the EC50 was < 500 nM. For COc1cnc(-n2cnc(C)n2)c2[nH]cc(C(=O)C(=O)N3C[C@H](C)N(c4nnnn4-c4ccccc4)C[C@H]3C)c12 [A-32], the EC50 was < 500 nM. For O=C(C(=O)N1CCC(c2nnc(-c3ccccc3)o2)CC1)c1c[nH]c2c(-n3ccnn3)ncc(F)c12 [A-33], the EC50 was > 500 nM. In the case of O=C(C(=O)N1CCC(c2nc(-c3cccnc3)no2)CC1)c1c[nH]c2c(-n3ccnn3)ncc(F)c12 [A-34], the EC50 is reported as > 500 nM. Cc1cc(N2CCN(C(=O)C(=O)c3c[nH]c4c(-n5ccnn5)ncc(F)c34)CC2)nc(-c2ccccc2O)n1 [A-35] was tested, and the EC50 was < 500 nM. For O=C(C(=O)N1CCC(c2c(-c3ccccc3)[nH]c3ccccc23)CC1)c1c[nH]c2c(-n3ccnn3)ncc(F)c12 [A-36], the EC50 was > 500 nM. O=C(C(=O)N1CCN(c2nc3ccccc3n2-c2ccccc2)CC1)c1c[nH]c2c(-n3ccnn3)ncc(F)c12 [A-37] was tested, and the EC50 was < 500 nM. With COc1cnc(-n2cnc(C)n2)c2[nH]cc(C(=O)C(=O)N3CCN(c4nc5ccccc5n4-c4ccccc4)CC3)c12 [A-38] the EC50 was < 500 nM. COc1cnc(-n2cnc(C)n2)c2[nH]cc(C(=O)C(=O)N3CCN(C4=NCCCN4c4ccccc4)CC3)c12 [A-39] was tested, and the EC50 was > 500 nM. For O=C(C(=O)N1CCN(C2=NCCCN2c2ccccc2)CC1)c1c[nH]c2c(-n3ccnn3)ncc(F)c12 [A-40], the EC50 was > 500 nM. O=C(C(=O)N1CCN(c2cccc(C3CCCCC3)c2)CC1)c1c[nH]c2c(-n3ccnn3)ncc(F)c12 [A-41] was tested, and the EC50 was > 500 nM. In the case of O=C(C(=O)N1CCN(c2ccccc2C2CCCCC2)CC1)c1c[nH]c2c(-n3ccnn3)ncc(F)c12 [A-42], the EC50 is reported as > 500 nM. O=C(C(=O)N1CCN(c2nncn2-c2ccccc2)CC1)c1c[nH]c2c(-n3ccnn3)ncc(O)c12 [A-43] was tested, and the EC50 was < 500 nM. For COc1cnc(-n2cnc(C)n2)c2[nH]cc(C(=O)C(=O)N3CCN(c4nncn4-c4ccccc4)CC3)c12 [A-44], the EC50 was < 500 nM. With C[C@@H]1CN(C(=O)C(=O)c2c[nH]c3c(-n4ccnn4)ncc(F)c23)CCN1c1nnnn1-c1ccccc1 [A-45] the EC50 was < 500 nM. In the case of COc1cnc(-n2cnc(C)n2)c2[nH]cc(C(=O)C(=O)N3CCN(c4nnnn4-c4ccccc4)[C@H](C)C3)c12 [A-46], the EC50 is reported as < 500 nM. In the case of Cc1nnc(N2CCN(C(=O)C(=O)c3c[nH]c4c(-n5ccnn5)ncc(F)c34)CC2)n1-c1ccccc1 [A-47], the EC50 is reported as < 500 nM. In the case of Cc1cc(N2CCN(C(=O)C(=O)c3c[nH]c4c(-n5ccnn5)ncc(F)c34)CC2)n(-c2ccccc2)n1 [A-48], the EC50 is reported as < 500 nM. O=C(C(=O)N1CCN(c2nccn2-c2ccccc2)CC1)c1c[nH]c2c(-n3ccnn3)ncc(F)c12 [A-49] was tested, and the EC50 was < 500 nM. For CCOc1ccccc1N1CCN(C(=O)C(=O)c2c[nH]c3c(-n4ccnn4)ncc(F)c23)CC1 [A-50], the EC50 was < 500 nM. For O=C(C(=O)N1CCN(c2ncccc2C(F)(F)F)CC1)c1c[nH]c2c(-n3ccnn3)ncc(F)c12 [A-51], the EC50 was < 500 nM. For O=C(C(=O)N1CCN(c2ccccc2C(F)(F)F)CC1)c1c[nH]c2c(-n3ccnn3)ncc(F)c12 [A-52], the EC50 was > 500 nM. In the case of COc1cnc(Br)c2[nH]cc(C(=O)C(=O)N3CCN(c4nncn4-c4ccccc4)CC3)c12 [A-53], the EC50 is reported as < 500 nM. For COc1cnc(-n2cnc(C)n2)c2[nH]cc(C(=O)C(=O)N3CCN(c4nccn4-c4ccccc4)CC3)c12 [A-54], the EC50 was < 500 nM. For O=C(C(=O)N1CCN(C2=NS(=O)(=O)N=C2c2ccccc2)CC1)c1c[nH]c2c(-n3ccnn3)ncc(F)c12 [A-55], the EC50 was < 500 nM. C[C@@H]1CN(C(=O)C(=O)c2c[nH]c3c(Cl)ncc(O)c23)CCN1c1nnnn1-c1ccccc1 [A-56] was tested, and the EC50 was > 500 nM.
